Assay results taken from patent US20250059188A1, “ARYLSULPHONAMIDE COMPOUNDS” (Anaxis Pharma Pty Ltd, priority 2021, published 2025).

Tests used:
Conditions in all cases: equilibrium dissociation constant
human RIPK3 = human RIPK3 (Homo sapiens (Human), UniProt Q9Y572); assay: KINOMEscan binding assay, human RIPK3
Experimental: (§1) Binding affinity of the test compounds for human MLKL (full length), mouse MLKL (full length), human RIPK1 and human RIPK3 was determined using the KINOMEscan™ technology developed by DiscoverX (USA; http://www.discoverx.com). The assay was conducted according to manufacturer instructions.
(§2) Kinase assays. For most assays, kinase-tagged T7 phage strains were grown in parallel in 24-well blocks in an E. coli host derived from the BL21 strain. E. coli were grown to log-phase and infected with T7 phage from a frozen stock (multiplicity of infection=0.4) and incubated with shaking at 32° C. until lysis (90-150 minutes). The lysates were centrifuged (6,000×g) and filtered (0.2 μm) to remove cell debris. The remaining kinases were produced in HEK-293 cells and subsequently tagged with DNA for qPCR detection. […] The liganded beads were blocked with excess biotin and washed with blocking buffer (SeaBlock (Pierce), 1% BSA, 0.05% Tween 20, 1 mM DTT) to remove unbound ligand and to reduce non-specific phage binding. […] All reactions were performed in polypropylene 384-well plates in a final volume of 20 μL. […] The kinase concentration in the eluates was measured by qPCR.
(§3) An 11-point 3-fold serial dilution of each test compound was prepared in 100% DMSO at 100× final test concentration and subsequently diluted to 1× in the assay (final DMSO concentration=1%). Most Kos were determined using a compound top concentration=30,000 nM.
(§4) KD for each test compound was calculated with a standard dose-response curve using the Hill equation (equation (1)): […]
(§5) The Hill Slope was set to −1.
(§6) Curves were fitted using a non-linear least square fit with the Levenberg-Marquardt algorithm.

human MLKL (full length) = human MLKL (full length) (Homo sapiens (Human), UniProt Q8NB16); assay: KINOMEscan binding assay, human MLKL (full length)
Experimental: as §1, §2, §3, §4, §5, §6

human RIPK1 = human RIPK1 (Homo sapiens (Human), UniProt Q13546); assay: KINOMEscan binding assay, human RIPK1
Experimental: as §1, §2, §3, §4, §5, §6

human MLKL (full length), sequence (Q8NB16 whole entry): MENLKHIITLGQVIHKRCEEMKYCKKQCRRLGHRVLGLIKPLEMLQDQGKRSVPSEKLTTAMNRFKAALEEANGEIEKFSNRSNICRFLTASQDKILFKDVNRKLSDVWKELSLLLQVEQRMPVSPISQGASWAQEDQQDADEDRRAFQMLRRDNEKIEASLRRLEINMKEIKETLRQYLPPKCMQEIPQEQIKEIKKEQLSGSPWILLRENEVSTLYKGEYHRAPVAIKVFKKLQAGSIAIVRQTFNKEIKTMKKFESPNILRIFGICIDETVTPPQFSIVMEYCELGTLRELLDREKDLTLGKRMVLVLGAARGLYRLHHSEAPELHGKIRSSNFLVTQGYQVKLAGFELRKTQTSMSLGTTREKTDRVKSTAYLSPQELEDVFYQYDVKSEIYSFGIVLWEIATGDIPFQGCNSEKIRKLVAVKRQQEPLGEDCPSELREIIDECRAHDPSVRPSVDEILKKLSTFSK
human RIPK3, sequence (Q9Y572 whole entry): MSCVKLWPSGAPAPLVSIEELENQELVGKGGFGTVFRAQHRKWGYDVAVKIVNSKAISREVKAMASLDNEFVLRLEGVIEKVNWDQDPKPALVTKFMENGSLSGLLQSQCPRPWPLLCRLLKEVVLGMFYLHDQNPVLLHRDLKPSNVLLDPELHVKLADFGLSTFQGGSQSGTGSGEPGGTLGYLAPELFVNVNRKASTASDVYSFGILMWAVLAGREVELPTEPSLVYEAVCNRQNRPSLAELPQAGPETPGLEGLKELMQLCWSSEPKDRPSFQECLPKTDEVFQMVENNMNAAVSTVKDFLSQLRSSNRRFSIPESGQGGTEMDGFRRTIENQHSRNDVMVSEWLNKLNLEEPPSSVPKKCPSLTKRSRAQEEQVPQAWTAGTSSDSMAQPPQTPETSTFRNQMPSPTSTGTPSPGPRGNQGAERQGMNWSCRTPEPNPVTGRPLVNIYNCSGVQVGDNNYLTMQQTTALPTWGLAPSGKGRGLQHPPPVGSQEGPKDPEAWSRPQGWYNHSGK
human RIPK1, sequence (Q13546 whole entry): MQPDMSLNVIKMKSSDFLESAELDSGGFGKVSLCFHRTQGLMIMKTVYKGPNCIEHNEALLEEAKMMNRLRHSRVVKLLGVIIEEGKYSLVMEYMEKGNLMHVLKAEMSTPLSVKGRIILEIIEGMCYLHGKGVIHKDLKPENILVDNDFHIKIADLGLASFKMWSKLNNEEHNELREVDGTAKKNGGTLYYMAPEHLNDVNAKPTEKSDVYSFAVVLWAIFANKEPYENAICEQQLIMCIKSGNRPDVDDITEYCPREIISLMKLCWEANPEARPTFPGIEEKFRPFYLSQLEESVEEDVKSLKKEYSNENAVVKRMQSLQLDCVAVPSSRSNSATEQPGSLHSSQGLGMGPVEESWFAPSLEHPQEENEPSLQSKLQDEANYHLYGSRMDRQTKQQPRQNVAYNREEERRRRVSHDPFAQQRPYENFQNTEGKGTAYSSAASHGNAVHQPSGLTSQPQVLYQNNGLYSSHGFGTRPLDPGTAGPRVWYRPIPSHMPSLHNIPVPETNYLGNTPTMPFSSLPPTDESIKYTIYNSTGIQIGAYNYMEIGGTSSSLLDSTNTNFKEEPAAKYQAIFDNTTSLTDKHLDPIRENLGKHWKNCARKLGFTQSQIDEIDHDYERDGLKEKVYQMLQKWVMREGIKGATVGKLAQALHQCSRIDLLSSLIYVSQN

Structure (SMILES) | Kd (human RIPK3) [µM] | Kd (human MLKL (full length)) [µM] | Kd (human RIPK1) [µM]
Nc1n[nH]c2nccc(-c3ccc(NS(=O)(=O)CC(F)(F)F)c(OCc4ccc(F)cc4)c3)c12 [Compound 67, N-(4-(3-Amino-1H-pyrazolo[3,4-b]pyridin-4-yl)-2-((4-fluorophenyl)methoxy)phenyl)-2,2,2-trifluoroethane-1-sulfonamide] | > 10 | < 0.001 | > 10
Nc1n[nH]c2ccnc(-c3ccc(NS(=O)(=O)CC(F)(F)F)c(OCc4ccc(F)cc4)c3)c12 [Compound 65, N-(4-(3-amino-1H-pyrazolo[4,3-c]pyridin-4-yl)-2-((4-fluorophenyl)methoxy)phenyl)-2,2,2-trifluoroethane-1-sulfonamide] | > 10 | 0.001 to 0.1 | > 10
C[C@H](Oc1cc(-c2nn(C)c3c(-c4cnn5c4CNCC5)cnc(N)c23)ccc1NS(=O)(=O)C(F)F)c1ccc(F)cc1 [Compound 90, (S)-N-(4-(4-amino-1-methyl-7-(4,5,6,7-tetrahydropyrazolo[1,5-a]pyrazin-3-yl)-1H-pyrazolo[4,3-c]pyridin-3-yl)-2-(1-(4-fluorophenyl)ethoxy)phenyl)-1,1-difluoromethanesulfonamide] | > 10 | 0.001 to 0.1 | > 10
Cn1nc(-c2ccc(NS(=O)(=O)C(F)F)c(OCc3ncco3)c2)c2c(N)ncc(-c3cnn(C4CCOCC4)c3)c21 [Compound 151, N-(4-(4-amino-1-methyl-7-(1-(tetrahydro-2H-pyran-4-yl)-1H-pyrazol-4-yl)-1H-pyrazolo[4,3-c]pyridin-3-yl)-2-(oxazol-2-ylmethoxy)phenyl)-1,1-difluoromethanesulfonamide] | > 10 | < 0.001 | > 10
COC[C@@H](Oc1cc(-c2nn(C)c3c(-c4cnn(C5CCOCC5)c4)cnc(N)c23)ccc1NS(=O)(=O)C(F)F)c1ccc(F)cc1 [Compound 112, (S)—N-(4-(4-amino-1-methyl-7-(1-(tetrahydro-2H-pyran-4-yl)-1H-pyrazol-4-yl)-1H-pyrazolo[4,3-c]pyridin-3-yl)-2-(1-(4-fluorophenyl)-2-methoxyethoxy)phenyl)-1,1-difluoromethanesulfonamide] | > 10 | 0.001 to 0.1 | > 10
C[C@H](Oc1cc(-c2nn(C)c3c(-c4cnn(C5CCOCC5)c4)cnc(N)c23)ccc1NS(=O)(=O)Cc1ccccc1)c1ccc(F)cc1 [Compound 127, (S)-N-(4-(4-amino-1-methyl-7-(1-(tetrahydro-2H-pyran-4-yl)-1H-pyrazol-4-yl)-1H-pyrazolo[4,3-c]pyridin-3-yl)-2-(1-(4-fluorophenyl)ethoxy)phenyl)-1-phenylmethanesulfonamide] | – | 0.001 to 0.1 | –
Cn1nc(-c2ccc(NS(=O)(=O)C(F)F)c(OCc3nccs3)c2)c2c(N)ncc(-c3cnn(C4CCOCC4)c3)c21 [Compound 143, N-(4-(4-amino-1-methyl-7-(1-(tetrahydro-2H-pyran-4-yl)-1H-pyrazol-4-yl)-1H-pyrazolo[4,3-c]pyridin-3-yl)-2-(thiazol-2-ylmethoxy)phenyl)-1,1-difluoromethanesulfonamide] | > 10 | < 0.001 | > 10
C[C@H](Oc1cc(-c2nn(C)c3c(-c4cnc(N5CCOCC5)nc4)cnc(N)c23)ccc1NS(=O)(=O)C(F)F)c1ccc(F)cc1 [Compound 110, (S)-N-(4-(4-amino-1-methyl-7-(2-morpholinopyrimidin-5-yl)-1H-pyrazolo[4,3-c]pyridin-3-yl)-2-(1-(4-fluorophenyl)ethoxy)phenyl)-1,1-difluoromethanesulfonamide] | > 10 | < 0.001 | > 10
Nc1ncc(-c2cnn(CCO)c2)c2occ(-c3ccc(NS(=O)(=O)C(F)F)c(OCc4ccc(F)cc4)c3)c12 [Compound 6, N-(4-(4-amino-7-(1-(2-hydroxyethyl)-1H-pyrazol-4-yl)furo[3,2-c]pyridin-3-yl)-2-((4-fluorobenzyl)oxy)phenyl)-1,1-difluoromethanesulfonamide] | > 10 | < 0.001 | > 10
C[C@H](Oc1cc(-c2nn(C)c3c(-c4cnn(C5CCOCC5)c4)cnc(N)c23)ccc1NS(=O)(=O)Cc1ccccc1)c1ccc(F)cc1 [Compound 125, (S)-N-(4-(4-amino-1-methyl-7-(1-(tetrahydro-2H-pyran-4-yl)-1H-pyrazol-4-yl)-1H-pyrazolo[4,3-c]pyridin-3-yl)-2-(1-(4-fluorophenyl)ethoxy)phenyl)-1-phenylmethanesulfonamide] | > 10 | 0.001 to 0.1 | > 10
Cn1nc(-c2ccc(NS(=O)(=O)C(F)F)c(OCc3ccc(F)cc3)c2)c2c(N)nccc21 [Compound 10, N-(4-{4-amino-1-methyl-1H-pyrazolo[4,3-c]pyridin-3-yl}-2-[(4-fluorophenyl)methoxy]phenyl)-1,1-difluoromethanesulfonamide] | > 10 | 0.001 to 0.1 | > 10
CCS(=O)(=O)Nc1ccc(-c2nn(C)c3c(NC(C)=O)cnc(N)c23)cc1OCc1ccc(F)cc1 [Compound 2, N-(4-amino-3-(4-(ethylsulfonamido)-3-((4-fluorobenzyl)oxy)phenyl)-1-methyl-1H-pyrazolo[4,3-c]pyridin-7-yl)acetamide] | > 10 | 0.001 to 0.1 | > 10
C[C@H](Oc1cc(-c2nn(C)c3c(-c4cnn(C5CCOCC5)c4)cnc(N)c23)ccc1NS(=O)(=O)N(C)C)c1ccc(F)cc1 [Compound 124] | > 10 | 0.1 to 10 | > 10
CC(C)Oc1cc(-c2nn(C)c3c(-c4cnn(C5CCOCC5)c4)cnc(N)c23)ccc1NS(=O)(=O)C(F)F [Compound 144, N-(4-(4-amino-1-methyl-7-(1-(tetrahydro-2H-pyran-4-yl)-1H-pyrazol-4-yl)-1H-pyrazolo[4,3-c]pyridin-3-yl)-2-isopropoxyphenyl)-1,1-difluoromethanesulfonamide] | > 10 | < 0.001 | > 10
C[C@H](Oc1cc(-c2nn(C)c3c(-c4cnn5c4CN(C)CC5)cnc(N)c23)ccc1NS(=O)(=O)C(F)F)c1ccc(F)cc1 [Compound 91, (S)—N-(4-(4-amino-1-methyl-7-(5-methyl-4,5,6,7-tetrahydropyrazolo[1,5-a]pyrazin-3-yl)-1H-pyrazolo[4,3-c]pyridin-3-yl)-2-(1-(4-fluorophenyl)ethoxy)phenyl)-1,1-difluoromethanesulfonamide] | > 10 | 0.1 to 10 | > 10
CCS(=O)(=O)Nc1ccc(-c2ncn3ccnc(N)c23)cc1OCc1ccc(F)cc1 [Compound 63, N-(4-(8-Aminoimidazo[1,5-a]pyrazin-1-yl)-2-((4-fluorophenyl)methoxy)phenyl) ethane-1-sulfonamide] | > 10 | 0.1 to 10 | > 10
C[C@H](Oc1cc(-c2nn(C)c3c(-c4cnc(N5CCCC5)nc4)cnc(N)c23)ccc1NS(=O)(=O)C(F)F)c1ccc(F)cc1 [Compound 114, (S)-N-(4-(4-amino-1-methyl-7-(2-(pyrrolidin-1-yl)pyrimidin-5-yl)-1H-pyrazolo[4,3-c]pyridin-3-yl)-2-(1-(4-fluorophenyl)ethoxy)phenyl)-1,1-difluoromethanesulfonamide] | > 10 | 0.001 to 0.1 | > 10
